Results reported in patent US6355799B1, “Substituted benzene compounds, process for their preparation, and herbicidal and defoliant compositions containing them” (ISK Americas Incorporated, priority 1997, dated 2002).

Experiments:
Format in all cases: in vivo
[1] = test system: large crabgrass (Digitaria sanguinalis, DIGSA); assay: Pre-emerge test, greenhouse herbicide activity screening; settings: rated 14 days after application, 0 = no damage, 100 = complete death
Summary of the method: (§1)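 Plants grown in 10 cm pots of sandy loam mix received acetone-dissolved compounds through a moving flat-fan nozzle. Doses ranged from 15 to 1000 g ai/ha. Pre-emerge pots were seeded one day earlier, post-emerge pots 8–21 days earlier. Fourteen days on, each pot was graded 0–100 for damage.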

[2] = test system: sicklepod (Cassia obtusifolia, CASOB); assay: as above; settings: rated 14 days after application, 0 = no damage, 100 = complete death
Summary of the method: as §1

[3] = test system: velvetleaf (Abutilon theophrasti, ABUTH); assay: as above; settings: rated 14 days after application, 0 = no damage, 100 = complete death
Summary of the method: as §1

[4] = test system: green foxtail (Setaria viridis, SETVI); assay: as above; settings: rated 14 days after application, 0 = no damage, 100 = complete death
Summary of the method: as §1

[5] = test system: lambsquarters (Chenopodium album, CHEAL); assay: as above; settings: rated 14 days after application, 0 = no damage, 100 = complete death
Summary of the method: as §1

[6] = test system: johnsongrass (Sorghum halepense, SORHA); assay: as above; settings: rated 14 days after application, 0 = no damage, 100 = complete death
Summary of the method: as §1

[7] = test system: ivyleaf morningglory (Ipomoea hederacea, IPOHE); assay: as above; settings: rated 14 days after application, 0 = no damage, 100 = complete death
Summary of the method: as §1

[8] = test system: barnyardgrass (Echinochloa crus-galli, ECHCG); assay: as above; settings: rated 14 days after application, 0 = no damage, 100 = complete death
Summary of the method: as §1

[9] = test system: common ragweed (Ambrosia artemisizfolia L., AMBEL); assay: as above; settings: rated 14 days after application, 0 = no damage, 100 = complete death
Summary of the method: as §1

[10] = test system: redroot pigweed (Amaranthus retroflexus, AMARE); assay: as above; settings: rated 14 days after application, 0 = no damage, 100 = complete death
Summary of the method: (§2)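 Sandy loam pots; pre-emerge: sown 1 d pre-spray, surface-watered after, then bottom-watered. Post-emerge: sown 8–21 d before, 2–3 leaf stage, + 0.25% v/v NIS, bottom-watered. Acetone, 187 l/ha track spray, 15–1000 g ai/ha. 0–100 injury score, day 14.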

[11] = test system: large crabgrass (Digitaria sanguinalis, DIGSA); assay: Post-emerge test, greenhouse herbicide activity screening; settings: post-emerge, 14 days after application, rating scale 0-100
Summary of the method: (§3)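 Herbicidal damage is scored 0 (none) to 100 (complete plant death) two weeks after a simulated field spray. Rates span 15–1000 g ai/ha, delivered in acetone at 187 l/ha. For post-emergence treatments, plants have 2–3 leaves and the spray carries 0.25% v/v non-ionic surfactant.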

[12] = test system: sicklepod (Cassia obtusifolia, CASOB); assay: as above; settings: post-emerge, 14 days after application, rating scale 0-100
Summary of the method: as §3

[13] = test system: velvetleaf (Abutilon theophrasti, ABUTH); assay: as above; settings: post-emerge, 14 days after application, rating scale 0-100
Summary of the method: as §3

[14] = test system: green foxtail (Setaria viridis, SETVI); assay: as above; settings: post-emerge, 14 days after application, rating scale 0-100
Summary of the method: as §3

[15] = test system: lambsquarters (Chenopodium album, CHEAL); assay: as above; settings: post-emerge, 14 days after application, rating scale 0-100
Summary of the method: as §3

[16] = test system: redroot pigweed (Amaranthus retroflexus, AMARE); assay: as above; settings: post-emerge, 14 days after application, rating scale 0-100
Summary of the method: as §3

[17] = test system: johnsongrass (Sorghum halepense, SORHA); assay: as above; settings: post-emerge, 14 days after application, rating scale 0-100
Summary of the method: as §3

[18] = test system: ivyleaf morningglory (Ipomoea hederacea, IPOHE); assay: as above; settings: post-emerge, 14 days after application, rating scale 0-100
Summary of the method: as §3

[19] = test system: barnyardgrass (Echinochloa crus-galli, ECHCG); assay: as above; settings: post-emerge, 14 days after application, rating scale 0-100
Summary of the method: as §3

[20] = test system: common ragweed (Ambrosia artemisizfolia L., AMBEL); assay: as above; settings: post-emerge, 14 days after application, rating scale 0-100
Summary of the method: as §3

[21] = test system: field corn (Zea mays L., var. Dekalb 535, CORN); assay: Post-emerge test, crop safety; settings: post-emerge, 14 days after application, rating scale 0-100
Summary of the method: (§4)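 Each test used a mechanized track sprayer delivering 187 l/ha of acetone solution at 15–1000 g ai/ha. Post-emerge foliage at 2–3 leaves was treated with added 0.25% v/v non-ionic surfactant and bottom-watered only. Injury was assessed on day 14, where 100 means total kill.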

[22] = test system: upland rice (Oryza sp., var. Tebonnet, RICE); assay: Post-emerge test, crop safety; settings: post-emerge, 14 days after application, rating scale 0-100
Summary of the method: as §4

[23] = test system: field corn (Zea mays L., var. Dekalb 535, CORN); assay: Pre-emerge test, crop safety; settings: rated 14 days after application, 0 = no damage, 100 = complete death
Summary of the method: as §2

[24] = test system: upland rice (Oryza sp., var. Tebonnet, RICE); assay: Pre-emerge test, crop safety; settings: rated 14 days after application, 0 = no damage, 100 = complete death
Summary of the method: as §2

## COc1c(Cl)cc(F)c(-n2c(=O)cc(C(F)(F)F)n(C)c2=O)c1NC(=O)c1ccccc1Cl [2-53]
[1]; 63 g ai/ha
  Pre-emerge Herbicidal Activity, phytotoxicity rating (0-100), DIGSA: 90
[1]; 250 g ai/ha
  Pre-emerge Herbicidal Activity, phytotoxicity rating (0-100), DIGSA: 100
[2]; 63 g ai/ha
  Pre-emerge Herbicidal Activity, phytotoxicity rating (0-100), CASOB: 95
[2]; 250 g ai/ha
  Pre-emerge Herbicidal Activity, phytotoxicity rating (0-100), CASOB: 100
[3]; 63 g ai/ha
  Pre-emerge Herbicidal Activity, phytotoxicity rating (0-100), ABUTH: 100
[3]; 250 g ai/ha
  Pre-emerge Herbicidal Activity, phytotoxicity rating (0-100), ABUTH: 100
[4]; 63 g ai/ha
  Pre-emerge Herbicidal Activity, phytotoxicity rating (0-100), SETVI: 100
[4]; 250 g ai/ha
  Pre-emerge Herbicidal Activity, phytotoxicity rating (0-100), SETVI: 100
[5]; 63 g ai/ha
  Pre-emerge Herbicidal Activity, phytotoxicity rating (0-100), CHEAL: 100
[5]; 250 g ai/ha
  Pre-emerge Herbicidal Activity, phytotoxicity rating (0-100), CHEAL: 100
[6]; 63 g ai/ha
  Pre-emerge Herbicidal Activity, phytotoxicity rating (0-100), SORHA: 40
[6]; 250 g ai/ha
  Pre-emerge Herbicidal Activity, phytotoxicity rating (0-100), SORHA: 100
[7]; 63 g ai/ha
  Pre-emerge Herbicidal Activity, phytotoxicity rating (0-100), IPOHE: 100
[7]; 250 g ai/ha
  Pre-emerge Herbicidal Activity, phytotoxicity rating (0-100), IPOHE: 100
[8]; 63 g ai/ha
  Pre-emerge Herbicidal Activity, phytotoxicity rating (0-100), ECHCG: 40
[8]; 250 g ai/ha
  Pre-emerge Herbicidal Activity, phytotoxicity rating (0-100), ECHCG: 99
[9]; 63 g ai/ha
  Pre-emerge Herbicidal Activity, phytotoxicity rating (0-100), AMBEL: 80
[9]; 250 g ai/ha
  Pre-emerge Herbicidal Activity, phytotoxicity rating (0-100), AMBEL: 100
[10]; 63 g ai/ha
  Pre-emerge Herbicidal Activity, phytotoxicity rating (0-100), AMARE: 100
[10]; 250 g ai/ha
  Pre-emerge Herbicidal Activity, phytotoxicity rating (0-100), AMARE: 100
[11]; 63 g ai/ha
  phytotoxicity rating DIGSA: 0
[11]; 250 g ai/ha
  phytotoxicity rating DIGSA: 20
[12]; 63 g ai/ha
  phytotoxicity rating CASOB: 70
[12]; 250 g ai/ha
  phytotoxicity rating CASOB: 100
[13]; 63 g ai/ha
  phytotoxicity rating ABUTH: 100
[13]; 250 g ai/ha
  phytotoxicity rating ABUTH: 100
[14]; 63 g ai/ha
  phytotoxicity rating SETVI: 20
[14]; 250 g ai/ha
  phytotoxicity rating SETVI: 40
[15]; 63 g ai/ha
  phytotoxicity rating CHEAL: 95
[15]; 250 g ai/ha
  phytotoxicity rating CHEAL: 100
[16]; 63 g ai/ha
  phytotoxicity rating AMARE: 90
[16]; 250 g ai/ha
  phytotoxicity rating AMARE: 100
[17]; 63 g ai/ha
  phytotoxicity rating SORHA: 0
[17]; 250 g ai/ha
  phytotoxicity rating SORHA: 50
[18]; 63 g ai/ha
  phytotoxicity rating IPOHE: 90
[18]; 250 g ai/ha
  phytotoxicity rating IPOHE: 100
[19]; 63 g ai/ha
  phytotoxicity rating ECHCG: 0
[19]; 250 g ai/ha
  phytotoxicity rating ECHCG: 70
[20]; 63 g ai/ha
  phytotoxicity rating AMBEL: 70
[20]; 250 g ai/ha
  phytotoxicity rating AMBEL: 90
[21]; 63 g ai/ha
  phytotoxicity rating CORN: 10
[21]; 250 g ai/ha
  phytotoxicity rating CORN: 70
[22]; 63 g ai/ha
  phytotoxicity rating RICE: 30
[22]; 250 g ai/ha
  phytotoxicity rating RICE: 70
[23]; 63 g ai/ha
  Pre-emerge phytotoxicity rating (0-100), crop damage, CORN: 25
[23]; 250 g ai/ha
  Pre-emerge phytotoxicity rating (0-100), crop damage, CORN: 90
[24]; 63 g ai/ha
  Pre-emerge phytotoxicity rating (0-100), crop damage, RICE: 80
[24]; 250 g ai/ha
  Pre-emerge phytotoxicity rating (0-100), crop damage, RICE: 90
